Columns and labels:
[1] = test system: heart failure by pressure overload (TAC) in mice; assay: Pressure overload (TAC) heart failure in BMT mice; format: in vivo
Source text: 22A. Scheme of the experimental study. Mice underwent partial (10%) bone marrow reconstitution with Tet2-deficient cells or WT cells following lethal irradiation. After 8 weeks of recovery, mice underwent permanent TAC surgery to produce pressure overload on the heart. 22B. […] 22C. […] 22D. […] LVPWTd=left ventricle posterior wall thickness at diastole, FS=fractional shortening. 22E.
(§1) Heart failure was induced in C57/B16 mice by pressure overload, achieved by transverse aortic constriction (TAC), or by chronic ischemia, induced by the permanent ligation of the left anterior descending (LAD) artery (FIGS. 19, 20). In both models, Tet2-deficient hematopoietic cells were used to partially reconstitute the bone marrow of lethally irradiated mice, leading to their clonal expansion. Alternatively, Tet2 was specifically ablated in myeloid cells using Cre recombinase expressed from the LysM promoter. In mice, undergoing LAD ligation, Tet2-deficiency led to worsened cardiac remodeling and function regardless of the means of Tet2 ablation. In mice undergoing TAC, Tet2-deficiency led to greater hypertrophy and systolic dysfunction regardless of the means of Tet2 ablation.

[2] = test system: atherosclerotic plaque in Ldlr−/− BMT mice; assay: Aortic root plaque size in high fat/high cholesterol diet-fed competitive-BMT Ldlr−/− mice; format: in vivo; settings: continuous infusion 5 mg/kg/day via subcutaneous osmotic pumps
Description: Aortic root plaque size in high fat/high cholesterol diet-fed 10% KO-BMT mice and 10% WT-BMT. […] Representative images of hematoxylin/eosin-stained sections are shown; plaques are delineated by discontinuous lines (scale bar: 100 μm). Statistical significance was evaluated by 2-way ANOVA with Tukey multiple comparison test (*p<0.05, […]).
Lethally irradiated Ldlr−/− recipients were transplanted with suspensions of BM cells containing 10% CD45.2+ Tet2−/− cells and 90% CD45.1+ Tet2+/+ cells (10% KO-BMT mice), or 10% CD45.2+ Tet2+/+ cells and 90% CD45.1+ Tet2+/+ cells (10% WT-BMT mice) (Fig. S1). BM cells were isolated from femurs and tibias of donor mice after euthanasia. Donor CD45.2+ cells were obtained from Tet2+/+ or −/− littermates; donor CD45.1+ cells were obtained from Pep Boy mice. Recipient Ldlr−/− mice were irradiated in a pie cage (Braintree Scientific) to limit mobility and ensure equal dose of irradiation and were exposed to two radiation doses of 550 rad three hours apart using an X-RAD 320 Biological Irradiator. After the second irradiation, each recipient mouse was injected with 10^7 BM cells i.v. Sterilized caging, food and water were provided during the first 14 days post-transplant and water was supplemented with antibiotics (Sulfatrim). […]
Mice were euthanized and aortas were removed after in situ perfusion with phosphate-buffered saline (PBS) injected through the left ventricle of the heart. […] All histological sections comprising the aortic root as determined by the location of the aortic valve leaflets were cut at a thickness of 6 μm. An operator who was blinded to genotype quantified plaque size in aortic root sections by computer-assisted morphometric analysis of microscopy images acquired on a KEYENCE BZ-9000 microscope. For each mouse, atherosclerosis plaque size in aortic root cross-sections was calculated as the average of 5 independent sections separated by ˜18 μm.

[3] = test system: heart failure by chronic ischemia (LAD ligation) in mice; assay: Post-infarction remodeling after permanent LAD ligation in BMT mice; format: in vivo
Source text: 21A. Scheme of the experimental study. Mice underwent partial (10%) bone marrow reconstitution with Tet2-deficient cells or WT cells following lethal irradiation. After 8 weeks of recovery, mice underwent permanent LAD ligation. PBS or MCC-950 infusion by osmotic pump was initiated 1 week after LAD ligation for 4 weeks. 21B. […] 21C.
as §1

TNF expression = assay: qRT-PCR of TNF expression in LPS/IFNγ-treated peritoneal macrophages; format: cell-based, mouse; settings: HDAC inhibition with TSA in macrophages
Source text: Although many details of its role in regulating chromatin architecture remain unknown, Tet2 has emerged as a multifaceted epigenetic regulator that is able to facilitate both transcription activation and repression depending on the molecular and cellular context. Given that Tet2 loss-of-function is associated with increased IL-1β gene expression, experiments were focused on potential mechanisms of Tet2-mediated transcriptional repression in macrophages.
(§2) Thioglycollate-elicited macrophages were obtained from the peritoneal cavity of mice 4 days after intraperitoneal injection of 1 ml of aged 4% Brewer's thioglycollate broth (BD Difco). Macrophages were allowed to adhere for 4 hours and cultured in RPMI medium supplemented with antibiotics and 10% FBS (PERFORMANCE PLUS FBS, Gibco). […] Cell cycle progression and apoptosis of cultured macrophages was evaluated by flow cytometry analysis of DNA content. […] For analysis of apoptosis induced by treatment with 7-ketocholesterol (Sigma), hypodiploid (SubG1) cells were quantified using with FLOWJO Software. Uptake of fluorescent dil-conjugated oxidized LDL (Alfa Aesar) was evaluated by flow cytometry analysis. […]
(§3) Total RNA from tissues and cultured cells was isolated using QIAZOL reagent and RNEASY kits (QIAGEN). […] Results were analyzed with the ΔΔCt method. […]

IL-6 expression = assay: qRT-PCR of IL-6 expression in LPS/IFNγ-treated peritoneal macrophages; format: cell-based, mouse; settings: 8 hours 10 ng/mL LPS and 2 ng/ml IFNγ; 0.5 μM TSA
Description: (§4) 14A. qRT-PCR analysis of IL-1β expression in peritoneal macrophages isolated from Tet2−/− or +/+ mice (n=3 mice/genotype) and treated for 8 hours with 10 ng/mL LPS and 2 ng/ml IFNγ in the absence or presence of 0.5 μM Trichostatin A (TSA). 14B. ChIP analysis of H3 acetylation in the IL-1β promoter of macrophages isolated from Tet2−/− or +/+ mice (n=6/genotype) after 10 hours of LPS/IFNγ treatment. 14C. qRT-PCR analysis of IL-6 expression in peritoneal macrophages isolated from Tet2−/−/ mice or +/+ controls (n=3 mice/genotype) and treated for 8 hours with 10 ng/mL LPS and 2 ng/ml IFNγ in the absence or presence of 0.5 μM TSA. 14D. […]
as §2, with “Difco).” for “Difco). Macrophages were allowed to adhere for 4 hours and cultured in RPMI medium supplemented with antibiotics and 10% FBS (PERFORMANCE PLUS FBS, Gibco).”
as §3

IL-1β expression = assay: qRT-PCR of IL-1β expression in LPS/IFNγ-treated peritoneal macrophages; format: cell-based, mouse; settings: 8 hours 10 ng/mL LPS and 2 ng/ml IFNγ; 0.5 μM TSA
Description: as §4
as §2, with “Difco).” for “Difco). Macrophages were allowed to adhere for 4 hours and cultured in RPMI medium supplemented with antibiotics and 10% FBS (PERFORMANCE PLUS FBS, Gibco).”
as §3

[4] = mice reconstituted with Tet2-knockout bone marrow, after pressure overload

Structure (SMILES): CC(C)(O)c1coc(S(=O)(=O)NC(=O)Nc2c3c(cc4c2CCC4)CCC3)c1 [MCC950]
- development of heart failure ([1]; TAC model (FIG. 22)): protected against the development of heart failure
- difference in cardiac fibrosis between Tet2-deficient and WT conditions ([1]; after pressure overload): eliminates the difference in this parameter
- difference in myocyte CSA between Tet2-deficient and WT conditions ([1]; after pressure overload): eliminates the difference in this parameters
- differences in HW and LW between Tet2-deficient and WT conditions ([1]; after pressure overload): eliminates the differences in these parameters
- differences in echocardiographic parameters between Tet2-deficient and WT conditions ([1]; after pressure overload): eliminates the differences in the echocardiographic parameters
- heart weight (HW) and wet lung weight (LW) adjusted by tibia length (TL) ([1]; after pressure overload, both strains of mice): ameliorates the increase of cardiac and lung mass
- myocyte cross-sectional area (CSA) ([1]; after pressure overload, wild type and hematopoietic Tet2-KO mice): inhibits hypertrophy
- cardiac fibrosis (Picro sirius staining) [1, 4]: can be reversed
- deterioration of cardiac function (echocardiographic parameters, LVPWTd, FS) [1, 4]: can be reversed
- decrease of atherosclerotic plaque size ([2]; 10% KO-BMT mice): ~50%
- reduction of atherosclerotic plaque size ([2]; 10% WT-BMT controls, nonstatistically significant): 20%
- difference in aortic plaque size between chimeric (10% KO-BMT) and nonchimeric control mice [2]: eliminated
- differences in cardiac parameters between Tet2-deficient and WT conditions ([3]; 5 week time point post-LAD ligation): eliminates the differences in cardiac parameters
- development of heart failure ([3]; LAD ligation model (FIG. 21)): protected against the development of heart failure
- cardiac remodeling, echocardiographic ejection fraction (EF) ([3]; Tet2-KO and wild-type bone marrow, osmotic pump infusion from 1 week after LAD ligation for 4 weeks): protects against adverse cardiac remodeling
- differences in cell size between Tet2-deficient and WT conditions ([3]; after LAD ligation): eliminates the differences in cell size
- cardiac myocyte hypertrophy after LAD ligation ([3]; mice reconstituted with Tet2-KO and wild-type bone marrow): inhibits the increase in cardiac myocyte hypertrophy

Structure (SMILES): CC(/C=C/C(=O)NO)=C\[C@@H](C)C(=O)c1ccc(N(C)C)cc1 [Trichostatin A]
- TNF transcript expression (TNF expression): reduced transcript expression
- IL-6 expression differences between genotypes (IL-6 expression): did not affect differences between genotypes
- IL-6 transcript expression (qRT-PCR) (IL-6 expression): reduced transcript expression
- IL-1β expression (qRT-PCR) (IL-1β expression): increased IL-1β expression
- IL-1β expression differences between Tet2-deficient and WT genotypes (IL-1β expression): abolished expression differences

Source: US10041044B2, “Age-associated clonal hematopoiesis accelerates cardio-metabolic disease development” (TRUSTEES OF BOSTON UNIVERSITY, priority 2016, dated 2018)
